In patent US10968200B2, “Salts of an LSD1 inhibitor and processes for preparing the same” (priority 2018, dated 2021):
Where a name gives a salt, the structure may show the parent alone. Read-outs that look alike come from different tables or passages of the source.

Assays:
[1] = Solubility measurement of Compound 1 di-HCl in various solvents; format: physicochemical; settings: thermodynamic from solid; for solubility: by vision; for solubility at 24 h: agitated 24 h
[2] = as above; format: physicochemical; settings: organic solvent or mixture, thermodynamic from solid; for solubility at 36 h: 25 °C, 25±1° C., agitated 36 h; for solubility at 24 h: 50 °C, 50±1° C., agitated 24 h
Experimental: The solubility of Compound 1 di-HCl was measured at 25±1° C. and 50±1° C. according to the following procedures.
Compound 1 di-HCl was added to 2 mL of a solvent listed in Table 3 at 25±1° C. until the solution became cloudy. Another 10 mg of Compound 1 di-HCl was then added. The mixture was agitated at 25±1° C. for 36 h. The supernatant was filtered using a syringe filter. The saturated solution was pipetted into an HPLC vial, which was diluted with acetonitrile. The solubility of Compound 1 di-HCl was calculated for each solvent.
Compound 1 di-HCl was added to 2 mL of a solvent listed in Table 3 at 50±1° C. until the solution became cloudy. Another 20-25 mg of Compound 1 di-HCl was then added. The mixture was agitated at 50±1° C. for 24 h. The supernatant was filtered using a warmed syringe filter at 50±1° C. The saturated solution was pipetted into an HPLC vial, which was diluted with acetonitrile. The solubility of Compound 1 di-HCl was calculated for each solvent.

With `N#CCC1(N2CCC(N[C@@H]3C[C@H]3c3ccccc3)CC2)CN(S(N)(=O)=O)C1` [Compound 1 di-HCl, 3-(cyanomethyl)-3-(4-{[(1R,2S)-2-phenylcyclopropyl]amino}piperidin-1-yl)azetidine-1-sulfonamide dihydrochloride] the solubility at 36 h ([1]; 25 °C, organic solvent or mixture, solvent 1,4-Dioxane, 25±1° C., agitated 36 h) was 200 µg/mL, the solubility at 36 h ([1]; 25 °C, organic solvent or mixture, solvent 1-Propanol, 25±1° C., agitated 36 h) was 4600 µg/mL and the solubility at 36 h ([1]; 25 °C, organic solvent or mixture, solvent 5% Water in ACN, 25±1° C.) was > 50000 µg/mL. For the same compound, the solubility ([1]; 25 °C, organic solvent or mixture, solvent 5% Water in MeOH, 25±1° C., read-out: Solubility at 25° C.) was > 50000 µg/mL, the solubility ([1]; 25 °C, organic solvent or mixture, solvent ACN/water (9:1), 25±1° C., read-out: Solubility at 25° C.) was > 50000 µg/mL and the solubility ([1]; 25 °C, organic solvent or mixture, solvent ACN:Water (4:1), 25±1° C., read-out: Solubility at 25° C.) was > 50000 µg/mL. The solubility ([1]; 25 °C, organic solvent or mixture, solvent Chloroform, 25±1° C., read-out: Solubility at 25° C.) was > 50000 µg/mL, the solubility ([1]; 25 °C, organic solvent or mixture, solvent DMF, 25±1° C., read-out: Solubility at 25° C.) was > 50000 µg/mL and the solubility ([1]; 25 °C, organic solvent or mixture, solvent DMSO, 25±1° C., read-out: Solubility at 25° C.) was > 50000 µg/mL. It also gave a solubility at 36 h ([1]; 25 °C, organic solvent or mixture, solvent EtOH, 25±1° C., agitated 36 h) of 3370 µg/mL, a solubility at 36 h ([1]; 25 °C, organic solvent or mixture, solvent Ethyl formate, 25±1° C., agitated 36 h) of 90 µg/mL and a solubility at 36 h ([1]; 25 °C, organic solvent or mixture, solvent MEK, 25±1° C., agitated 36 h) of 160 µg/mL. For the same compound, the solubility at 36 h ([1]; 25 °C, organic solvent or mixture, solvent MIBK, 25±1° C., agitated 36 h) was 60 µg/mL, the solubility ([1]; 25 °C, organic solvent or mixture, solvent MeOH/ACN (10 v/3 v), 25±1° C., read-out: Solubility at 25° C.) was > 50000 µg/mL and the solubility ([1]; 25 °C, organic solvent or mixture, solvent MeOH/Water/ACN (6.0/0.5/1.0), 25±1° C., read-out: Solubility at 25° C.) was > 50000 µg/mL. The solubility ([1]; 25 °C, organic solvent or mixture, solvent MeOH/water/ACN (6 v/0.5 v/3.5 v), 25±1° C., read-out: Solubility at 25° C.) was > 50000 µg/mL, the solubility at 36 h ([1]; 25 °C, organic solvent or mixture, solvent MeOH/water/ACN (6 v/1 v/3 v), 25±1° C.) was > 50000 µg/mL and the solubility ([1]; 25 °C, organic solvent or mixture, solvent MeOH/water/ACN (6 v/1.5 v/3 v), 25±1° C., read-out: Solubility at 25° C.) was > 50000 µg/mL. The solubility at 36 h ([1]; 25 °C, organic solvent or mixture, solvent THF, 25±1° C., agitated 36 h) was 40 µg/mL, the solubility ([1]; 25 °C, solvent Water, 25±1° C., read-out: Solubility at 25° C.) was > 50000 µg/mL and the solubility at 24 h ([1]; 50 °C, organic solvent or mixture, solvent 2-Methoxyethanol, 50±1° C.) was 48300 µg/mL. For the same compound, the solubility at 24 h ([1]; 50 °C, organic solvent or mixture, solvent 5% Water in ACN, 50±1° C.) was 45400 µg/mL, the solubility ([1]; 50 °C, organic solvent or mixture, solvent 5% Water in MeOH, 50±1° C., read-out: Solubility at 50° C.) was > 50000 µg/mL and the solubility ([1]; 50 °C, organic solvent or mixture, solvent ACN/water (9:1), 50±1° C., read-out: Solubility at 50° C.) was > 50000 µg/mL. For the same compound, the solubility ([1]; 50 °C, organic solvent or mixture, solvent ACN:Water (4:1), 50±1° C., read-out: Solubility at 50° C.) was > 50000 µg/mL, the solubility at 24 h ([1]; 50 °C, organic solvent or mixture, solvent Acetone, 50±1° C.) was 850 µg/mL and the solubility ([1]; 50 °C, organic solvent or mixture, solvent Chloroform, 50±1° C., read-out: Solubility at 50° C.) was > 50000 µg/mL. For the same compound, the solubility ([1]; 50 °C, organic solvent or mixture, solvent DMF, 50±1° C., read-out: Solubility at 50° C.) was > 50000 µg/mL, the solubility ([1]; 50 °C, organic solvent or mixture, solvent DMSO, 50±1° C., read-out: Solubility at 50° C.) was > 50000 µg/mL and the solubility at 24 h ([1]; 50 °C, organic solvent or mixture, solvent IPA, 50±1° C.) was 1910 µg/mL. For the same compound, the solubility ([1]; 50 °C, organic solvent or mixture, solvent MeOH/ACN (10 v/3 v), 50±1° C., read-out: Solubility at 50° C.) was > 50000 µg/mL, the solubility ([1]; 50 °C, organic solvent or mixture, solvent MeOH/Water/ACN (6.0/0.5/1.0), 50±1° C., read-out: Solubility at 50° C.) was > 50000 µg/mL and the solubility ([1]; 50 °C, organic solvent or mixture, solvent MeOH/water/ACN (6 v/0.5 v/3.5 v), 50±1° C., read-out: Solubility at 50° C.) was > 50000 µg/mL. For the same compound, the solubility ([1]; 50 °C, organic solvent or mixture, solvent MeOH/water/ACN (6 v/1 v/3 v), 50±1° C., read-out: Solubility at 50° C.) was > 50000 µg/mL, the solubility ([1]; 50 °C, organic solvent or mixture, solvent MeOH/water/ACN (6 v/1.5 v/3 v), 50±1° C., read-out: Solubility at 50° C.) was > 50000 µg/mL and the solubility at 24 h ([1]; 50 °C, organic solvent or mixture, solvent Methanol, 50±1° C.) was > 50000 µg/mL. The solubility at 24 h ([1]; 50 °C, organic solvent or mixture, solvent n-BuOH, 50±1° C.) was 2340 µg/mL, the solubility ([1]; 50 °C, solvent Water, 50±1° C., read-out: Solubility at 50° C.) was > 50000 µg/mL and the solubility ([1]; MeOH/water/ACN (5 v/2 v/3 v), 25 °C, organic solvent or mixture, solvent Me0H/water/ACN (5 v/2 v/3 v), 25±1° C., read-out: Solubility at 25° C.) was > 50000 µg/mL. For the same compound, the solubility ([1]; MeOH/water/ACN (5 v/2 v/3 v), 50 °C, organic solvent or mixture, solvent Me0H/water/ACN (5 v/2 v/3 v), 50±1° C., read-out: Solubility at 50° C.) was > 50000 µg/mL, the solubility at 36 h ([2]; solvent 2-Methoxyethanol) was 45900 µg/mL and the solubility at 36 h ([2]; solvent Acetone) was 3490 µg/mL. For the same compound, the solubility at 36 h ([2]; solvent IPA) was 1310 µg/mL, the solubility at 36 h ([2]; solvent MeCN) was 610 µg/mL and the solubility at 36 h ([2]; solvent Methanol) was 32300 µg/mL. For the same compound, the solubility at 36 h ([2]; solvent n-BuOH) was 1310 µg/mL, the solubility at 24 h ([2]; solvent 1,4-Dioxane) was 310 µg/mL and the solubility at 24 h ([2]; solvent 1-Propanol) was 5210 µg/mL. For the same compound, the solubility at 24 h ([2]; solvent Dichloromethane) was 60 µg/mL, the solubility at 24 h ([2]; solvent EtOAc) was 30 µg/mL and the solubility at 24 h ([2]; solvent EtOH) was 3630 µg/mL. It also gave a solubility at 24 h ([2]; solvent Ethyl formate) of 50 µg/mL, a solubility at 24 h ([2]; solvent MEK) of 160 µg/mL and a solubility at 24 h ([2]; solvent MIBK) of 130 µg/mL. It also gave a solubility at 24 h ([2]; solvent MeCN) of 6290 µg/mL and a solubility at 24 h ([2]; solvent THF) of 90 µg/mL.
